The results in this text go back to publication doi:10.1101/2023.05.23.541938v1, “Exploring the Chain Release Mechanism from an Atypical Apicomplexan Polyketide Synthase” (biorxiv, 2023).

Test [1] concerns the target T1, TgTR (TgPKS2 thioester reductase domain) (Toxoplasma gondii, UniProt Z9O203Q0F3).
T1 construct: isolated C-terminal thioester reductase (TR) domain of TgPKS2; E. coli codon optimized, expressed in E. coli BL21(DE3) with GroES/EL-TF chaperones
The test is described as follows: isothermal titration calorimetry. The class given is binding. The note with it: 25 mM Tris-HCl pH 7.6, 25 mM NaCl, N fixed at 1. In general terms: In ITC the heat of successive injections is recorded.

The test system of test [2] is TgTR (TgPKS2 thioester reductase domain). The note with it: saturating octanal (2.5 mM) and NADH; N147T in domain numbering.
Test [3] addresses T1, TgTR (TgPKS2 thioester reductase domain). The test is described as follows: thermal shift assay (SYPRO orange). In kind it is binding. The note with it: 1 mM compound, 3 µM TgTR, 10 mM Tris-HCl pH 8.0, 50 mM NaCl, 5% glycerol.

The term Kd denotes the free concentration of one partner at which half of the binding sites on the other are occupied at equilibrium, for simple one-to-one binding. `CCCCCCCC=O` [octanal]: the Kd in test [1] (excess NADH (1 mM)) was 146 ± 31 µM. The “NADH fluorescence consumption assay, single-point relative rate” value in test [2] was “no significant change was observed with octanal”. The Tm shift result in test [3] is “NADH, octanoyl-CoA, and octanal increased the TgTR Tm compared to the DMSO control”.

In test [1] (excess NADH (1 mM)), `CCCCCCCC(=O)SCCNC(=O)CCNC(=O)[C@H](O)C(C)(C)COP(=O)(O)OP(=O)(O)OC[C@H]1O[C@@H](n2cnc3c(N)ncnc32)[C@H](O)[C@@H]1OP(=O)(O)O` [octanoyl-CoA] registered a Kd of 89.6 ± 3.9 µM. The Tm shift result in test [3] was “NADH, octanoyl-CoA, and octanal increased the TgTR Tm compared to the DMSO control”.

`NC(=O)C1=CN([C@@H]2O[C@H](COP(=O)(O)OP(=O)(O)OC[C@H]3O[C@@H](n4cnc5c(N)ncnc54)[C@H](O)[C@@H]3O)[C@@H](O)[C@H]2O)C=CC1` [NADH]: binding in test [1] (no other ligand) was characterised by a dissociation constant (Kd) of 7.64 ± 0.59 µM. The Tm shift entry in test [3] was “NADH, octanoyl-CoA, and octanal increased the TgTR Tm compared to the DMSO control”.
